Target: T1, human EP1 receptor (Homo sapiens, UniProt P34995)
T1 sequence (P34995 1-402): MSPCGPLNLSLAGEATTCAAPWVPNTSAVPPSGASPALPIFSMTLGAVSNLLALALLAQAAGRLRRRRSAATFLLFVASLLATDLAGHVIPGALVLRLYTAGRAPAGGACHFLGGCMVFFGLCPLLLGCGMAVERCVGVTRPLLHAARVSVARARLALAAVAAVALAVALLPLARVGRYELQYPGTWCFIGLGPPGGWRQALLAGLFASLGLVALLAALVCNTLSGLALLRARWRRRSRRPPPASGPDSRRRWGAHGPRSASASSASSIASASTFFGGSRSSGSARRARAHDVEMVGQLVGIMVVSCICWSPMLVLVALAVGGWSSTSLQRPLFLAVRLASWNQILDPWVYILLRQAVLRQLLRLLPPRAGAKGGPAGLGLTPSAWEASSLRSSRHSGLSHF
Test: Test 2: Measurement of IP1 responses by HTRF, suspended HEK-293 cells stably expressing human EP1 receptors, PGE2 30 nM
Type: cell-based
Design: expressed in transfected cells
Details: HEK293, at 10 μM, read-out: Results of Test 2 (Functional assay), % inh
Description: Test 2: Measurement of IP1 responses by Homogeneous Time Resolved Fluorescence
IP1 measurements on HEK-293 cells that stably expressed human EP1 receptors were performed by using a system based on Homogeneous Time Resolved Fluorescense (HTRF) (Gabriel et al., 2003). This technology allows the direct measurement of IP1 in living cells. The principle of this assay is based on competition between IP1 produced by cells and IP1-d2 conjugate for the binding with monoclonal anti-IP1-cryptate conjugate. The HTRF IP1 kit from CisBio was used according to the manufacturer's directions. The experimental procedure was performed as stated below.
Suspended cells (30,000 cells per well) were added to 96-well culture plates in 40 μl of stimulation buffer (supplied by the kit). Compounds were then added in 20 μl of stimulation buffer and incubated at 37° C. for 15 minutes followed by 10 μl of PGE2 to a final concentration of […]. After 90 minutes at 37° C., the reaction was stopped lysing the cells with a mixture of 15 μl of cryptate and 15 μl of IP1-d2 prepared in the lysis buffer supplied by the manufacturer. Plates were incubated for an additional hour at room temperature and read at 665 nm/620 nm using an UltraEvolution Plate reader (Tecan).
Antagonist percentage inhibition was calculated relating compounds activity to the 0% inhibition of the wells incubated with 10 nM PGE2 alone and 100% inhibition of the wells incubated with 10 nM PGE2 plus 1 μM of the reference antagonist.

inhibition at 10 µM [%] | Compound
> 75 | O=C(O)c1cccc2c1CCCN2Cc1cc(Cl)ccc1OCc1ccc(Cl)cc1F [Example 94, 1-(5-chloro-2-((4-chloro-2-fluorobenzyl)oxy)benzyl) -1,2,3,4-tetrahydroquinoline-5-carboxylic acid]
45 to 75 | O=C(O)c1cccc2c1ncn2Cc1cc(Cl)ccc1OCc1ccc(Cl)cc1F [Example 92, 1-(5-chloro-2-((4-chloro-2-fluorobenzyl)oxy)benzyl) -1H-benzo[d]imidazole-4-carboxylic acid]

Further lines, the compound ahead of its results:

Compound | inhibition at 10 µM [%]
O=C(O)c1ccc2c(ccn2Cc2cc(Cl)ccc2OCc2ccc(Cl)cc2F)c1 [Example 76, 1-(5-chloro-2-((4-chloro-2-fluorobenzyl)oxy)benzyl)-1H-indole-5-carboxylic acid] | 45 to 75
O=C(O)COc1cccc2c1ccn2Cc1cc(C(F)(F)F)ccc1OCc1ccc(Cl)cc1F [Example 84, 2-((1-(2-((4-chloro-2-fluorobenzyl)oxy)-5-(trifluoromethyl)benzyl)-1H-indol-4-yl)oxy)acetic acid] | > 75
O=C(O)COc1cccc2c1ccn2Cc1cc(Cl)ccc1OCC1CC1 [Example 85, 2-((1-(5-chloro-2-(cyclopropylmethoxy)benzyl)-1H-indol-4-yl)oxy)acetic acid] | > 75
O=C(O)c1ccc2c(ccn2Cc2cc(F)ccc2OCc2cc(F)c(F)c(F)c2)c1 [Example 71, 1-(5-fluoro-2-((3,4,5-trifluorobenzyl)oxy)benzyl)-1H-indole-5-carboxylic acid] | 45 to 75
O=C(O)/C=C/c1cccc2c1ccn2Cc1cc(C(F)(F)F)ccc1OCc1ccccc1 [Example 79, (E)-3-(1-(2-(benzyloxy)-5-(trifluoromethyl)benzyl)-1H-indol-4-yl)acrylic acid] | > 75
O=C(O)c1cccc2c1ccn2Cc1cc(F)ccc1OCc1ccc(F)cc1F [Example 53, 1-(2-((2,4-difluorobenzyl)oxy)-5-fluorobenzyl)-1H-indole-4-carboxylic acid] | > 75
CC(Oc1ccc(Cl)cc1Cn1ccc2c(C(=O)O)cccc21)c1ccc(F)cc1F (stereo not drawn) [Example 23] | > 75

Target: T1, human EP1 receptor
Test: Test 1: Human EP1 receptor radioligand binding assay ([3H]-PGE2, transfected HEK-293 cell membranes)
Design: expressed in transfected cells; host or cells: HEK-293 cell membranes
Details: at 10 μM
Description: Test 1: Human EP1 Receptor Radioligand Binding Assay
To investigate binding properties of EP1 receptor ligands to human EP1 receptor, transfected HEK-293 cell membranes and [3H]-PGE2 (Perkin Elmer) were used. In 96-well plates the assay was carried out with a total reaction volume of 250 μl, containing 25 μl of membrane suspension (30 μg protein/well), 25 μl of [3H]-PGE2 (10 nM) in either absence or presence of 25 μl of either buffer or PGE2 (10 μM) for total and non-specific binding, respectively. Binding buffer contained 10 mM MES, 1 mM MgCl2 and 1 mM EDTA at pH 6.0. Plates were incubated at 25° C. for 60 minutes. After the incubation period, 200 μl of incubate were transferred to MultiScreen HTS, FB plates (Millipore), filtered and plates were washed 6 times with ice-cold 10 mM MES, 1 mM MgCl2 and 1 mM EDTA at pH 6.0. Filters were dried and counted in a MicroBeta scintillation counter (Perkin-Elmer) using EcoScint liquid scintillation cocktail.
Percentage inhibition was calculated relating compounds activity to the 0% inhibition of the wells incubated with 10 nM [3H]-PGE2 alone (total binding) and 100% inhibition of the wells incubated with 10 nM [3H]-PGE2 plus 10 μM PGE2 (non-specific binding).

Results of Test 1 (Binding assay), % inh | Compound
## (45 < % inh < 75) | 1-(5-chloro-2-((2-chloro-5-fluorobenzyl)oxy)benzyl)-1H-indole-4-carboxylic acid [Example 30]
# (% inh > 75) | CC(C)(F)COc1ccc(Cl)cc1Cn1ncc2c(C(=O)[O-])ccnc21.[Na+] [Example 213]

Same assay, conditions: read-out: Results of Test 1 (Binding assay), % inh

inhibition at 10 µM [%] | Compound
45 to 75 | COc1ccc(OCc2ccc(F)cc2F)c(Cn2ccc3c(C(=O)O)cccc32)c1 [Example 101, sodium 1-{2-[(2,4-difluorobenzyl)oxy]-5-methoxybenzyl}-1H-indole-4-carboxylate]
45 to 75 | O=C(O)c1ccc(F)c2c1ccn2Cc1ccccc1OCc1ccc(F)cc1F [Example 140]
45 to 75 | CC(C)C(C)Oc1ccc(Cl)cc1CN1CCCc2c(C(=O)O)cccc21 (stereo not drawn) [Example 176]
45 to 75 | CCCOc1ccc(F)cc1Cn1ccc2c(C(=O)O)cccc21 [Example 104]
45 to 75 | CCCOc1ccc(Cl)cc1Cn1ccc2c(C(=O)O)cccc21 [Example 106]
> 75 | O=C(O)c1cccc2c1ccn2Cc1cc(Cl)ccc1OC1CCCC1 [Example 105]
> 75 | CC(C)(F)COc1ccc(Cl)cc1Cn1cc(CCO)c2c(C(=O)O)cccc21 [Example 158]
> 75 | O=C(O)c1ncnc2c1ccn2Cc1cc(Cl)ccc1OCc1ccc(Cl)cc1F [Example 98]
45 to 75 | O=C(O)c1cccc2c1ccn2Cc1cc(Cl)ccc1OCCF [Example 111]
> 75 | O=C(O)c1cccc2c1c(CCO)cn2Cc1cc(F)ccc1OCc1ccc(F)cc1F [Example 159]
45 to 75 | COCCOc1ccc(Cl)cc1CN1CCc2c(C(=O)O)cccc21 [Example 201]
45 to 75 | CC(C)(C)COc1ccc(Cl)cc1CN1CCc2c(C(=O)O)cccc21 [Example 203]
> 75 | O=C(O)c1cccc2c1cnn2Cc1cc(Cl)ccc1OC1CCCC1 [Example 133]
45 to 75 | CCCOc1ccc(F)cc1Cn1ncc2c(C(=O)O)cccc21 [Example 135]
45 to 75 | CC(C)COc1ccc(F)cc1Cn1ccc2c(C(=O)O)cccc21 [Example 108]
> 75 | O=C(O)c1cccc2c1ccn2Cc1cc(Cl)ccc1OCC(F)(F)F [Example 112]

Further lines, the compound ahead of its results:

Compound | inhibition at 10 µM [%]
O=C(O)c1cccc2c1ccn2Cc1cc(Cl)ccc1OCc1cc(F)c(F)cc1Cl [Example 31, 1-(5-chloro-2-((2-chloro-4,5-difluorobenzyl)oxy)benzyl)-1H-indole-4-carboxylic acid] | 45 to 75
O=C(O)c1ccnc2c1ccn2Cc1cc(Cl)ccc1OCc1ccc(F)cc1F [Example 91] | > 75
O=C(O)c1cccc2c1ccn2Cc1cc(Br)ccc1OCc1ccc(F)c(F)c1F [Example 22, 1-(5-bromo-2-((2,3,4-trifluorobenzyl)oxy)benzyl)-1H-indole-4-carboxylic acid] | 45 to 75
O=C(O)c1cccc2c1ccn2Cc1cc(Cl)ccc1OCc1cc(F)c(F)cc1F [Example 15, 1-(5-chloro-2-((2,4,5-trifluorobenzyl)oxy)benzyl)-1H-indole-4-carboxylic acid] | > 75
O=C(O)c1cccc2c1ccn2Cc1cc(C(F)(F)F)ccc1OCc1ccc(Br)cc1F [Example 50, 1-(2-((4-bromo-2-fluorobenzyl)oxy)-5-(trifluoromethyl)benzyl)-1H-indole-4-carboxylic acid] | > 75
O=C(O)c1cccc2c1ccn2Cc1cc(Cl)ccc1OCc1c(F)cc(Cl)cc1F [Example 57, 1-(5-chloro-2-((4-chloro-2,6-difluorobenzyl)oxy)benzyl)-1H-indole-4-carboxylic acid] | > 75
O=C(O)c1cccc2c1ccn2Cc1cc(F)ccc1OCc1ccc(Br)cc1F [Example 56, 1-(2-((4-bromo-2-fluorobenzyl)oxy)-5-fluorobenzyl)-1H-indole-4-carboxylic acid] | > 75
O=C(O)c1cccc2c1ccn2Cc1cc(F)ccc1OCc1cc(F)ccc1F [Example 32, 1-(2-((2,5-difluorobenzyl)oxy)-5-fluorobenzyl)-1H-indole-4-carboxylic acid] | 45 to 75
O=C(O)c1cccc2c1ccn2Cc1cc(Br)ccc1OCc1ccc(F)cc1C(F)(F)F [Example 26, 1-(5-bromo-2-((4-fluoro-2-(trifluoromethyl)benzyl)oxy)benzyl)-1H-indole-4-carboxylic acid] | > 75
O=C(O)c1cccc2c1ccn2Cc1cc(Cl)ccc1OCc1ccccc1 [Example 44, 1-(2-(benzyloxy)-5-chlorobenzyl)-1H-indole-4-carboxylic acid] | > 75
O=C(O)c1cccc2c1ccn2Cc1cc(F)ccc1OCc1cc(F)c(F)cc1F [Example 16, 1-(5-fluoro-2-((2,4,5-trifluorobenzyl)oxy)benzyl)-1H-indole-4-carboxylic acid] | > 75
O=C(O)c1cccc2c1ccn2Cc1cc(Br)ccc1OCc1ccc(F)cc1Cl [Example 27, 1-(5-bromo-2-((2-chloro-4-fluorobenzyl)oxy)benzyl)-1H-indole-4-carboxylic acid] | > 75

Reference: patent US9518015B2, “EP1 receptor ligands” (LABORATORIOS DEL DR. ESTEVE, S.A., priority 2011, dated 2016)
